Key:
oxMIF = target: T1, oxMIF (Homo sapiens, UniProt P14174); experiment: 15N-HSQC NMR binding to H2O2-treated wild-type MIF (oxMIF)
T1 construct: made in house; host or cells: E. coli BL21-(DE3)-Rosetta-pLysS, pET11a-MIF, then H2O2 treatment
T1 sequence (P14174 2-115 limits assumed): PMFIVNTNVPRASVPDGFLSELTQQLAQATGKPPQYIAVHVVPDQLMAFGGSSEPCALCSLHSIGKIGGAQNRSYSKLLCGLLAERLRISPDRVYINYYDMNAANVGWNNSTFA
Procedure: The NMR F1-[^13C,^15N]-filtered-[^1H,^1H]-NOESY spectra for structure calculation were recorded on a 700 MHz Bruker Avance Neo spectrometer equipped with cryoprobe, and the ^15N-HSQC were recorded on a 600 MHz Bruker Avance III spectrometer equipped with cryoprobe. The filtered NOESY were recorded for MIF 1.0 mM and saturation of PAV-174, i.e., 1.0 mM of PAV-174. at 310K to reduce the rotational correlation time of the system, with two different mixing times 60 and 100ms; the free induction decay was measured for 106ms (2048 points) and the indirect dimension was set to 20ms (400 points); the signal acquisition was performed with 160 scans and the interscan delay was set to 1.5s. The ^15N-HSQC were measured at 298K with 121ms (2048 points) in the direct dimension and 53 ms (256 points) in the indirect dimension; the signal acquisition was performed through the accumulation of 16 scans and an interscan delay of 1s was applied. The cross-peaks corresponding to ligand-proteins were used to derive ligand-protein distant restraints using the initial rates of the normalized NOE intensity build-up curves.[91] […] The intermolecular distance restraints were kept semiambiguous, i.e., only the ligand signals were assigned, and the MIF- PAV-174 complex was calculated with the NMR^2 software[92] using the CYANA software for tortion angle dynamics structure calculation.

[1] = MTT assay, SH-SY5Y-tau-P301S cells; assay type: cell-based; settings: human, Figure S1B
Procedure: For viability analysis 4x10^4 Vero or 8x10^4 SH-SY5Y-tau-P301S cells were plated in a 96-well plate and incubated at 37°C overnight. Then the compounds diluted in DMSO were added to the cells. The final concentration of DMSO was 1%. The cells were then incubated for 24h (Vero) or 48h (SH-SY5Y). Afterward 20 μL of a Thiazolyl Blue Tetrazolium Bromide (MTT, Sigma) solution (5 mg/mL in PBS) was added to the cells and incubated for 4h allowing viable cells to reduce the yellow MTT into blue formazan metabolites. Following aspiration of the medium, the formazan was resuspended in 200 μL isopropanol/40 mM HCl and incubated for 30 min at RT. The diluted formazan was spectrometrically analyzed using a Tecan Safire Spectrometer at 560 nm and background at 670 nm was subtracted.

in vivo = experiment: in vivo; design: species or system Sprague Dawley rats
Procedure: Studies investigating the pharmacokinetics of PAV-617 were performed by Vipragen Biosciences Inc in […]. The animal care committee approval numbers for the studies are: M-Tox: VIP/IAEC/41/2016 and PK: VIP/IAEC/316/2021. […]
(C) Pharmacokinetic assessment of PAV-61 7 in Sprague Da wley ra ts (S D). Ma le SD ra ts (n=4) we re dosed via three ro utes na me ly intravenous (IV )- 1 mg/kg, (IP )- 5 mg/kg an d per ora l (P O)- 5 mg/kg. Plasma concentration wa s anal yzed at di ff e ren t time intervals. Pharmacokinetic pa ra met e rs we re de t erm ine d usi ng Win No nlin . Cma x (p ea k pl asma concentration) achieved through IV wa s 12 8 ng / mL, IP wa s 36 2. 6 ng / mL an d PO wa s 15 1. 1 ng / mL at Tmax (time of pe ak concentration obser ved) 1 h, 0. 5 h an d 4 h respectively. Co mpo un d PAV-61 7 ha s mo de rate t1/2 (ter min al ha lf-life ) through IV- 7. 8 h, IP- 7 h an d PO- 3. 3 h. CL (steady-state clearance) wa s found to be mo de rate- 20 mL /m in/kg which wa s 2. 7 5 times lo wer than ra t liver bl oo d flow . Vz (volum e of di str ibuti on) wa s found to be hi gh- 12 . 7 L/kg an d F (fracti on bi oavailabi lity) wa s found to be ver y go od through IP- 80 % an d mo de rate through PO- 41 % . […]

[2] = male, Sprague-Dawley, rat, ip, 5 mg/kg
[3] = male, Sprague-Dawley, rat, iv, 1 mg/kg
[4] = male, Sprague-Dawley, rat, po, 5 mg/kg

CCc1cc(N2CCCC2)cc2[s+]c3cc(N4CCCC4)cc(C)c3nc12.[I-] [PAV-174, 3,7-Di(pyrrolidine-1-yl) 1-ethyl-9-methyl-phenothiazin-5-ium iodide]
binding to redMIF and oxMIF (chemical shift perturbations) (oxMIF): bound to both MIF species
CC50 at 48 h [1]: 1.48 µM

[I-].c1cc2nc3ccc(N4CCCC4)cc3[s+]c2cc1N1CCCC1 [PAV-617, 3,7-Di(pyrrolidine-1-yl)phenothiazine-5-ium iodide]
CL, times lower than rat liver blood flow (in vivo; male, Sprague-Dawley): 2. 7 5 times
Vd (in vivo; male, Sprague-Dawley, rat): 12.7 L/kg
Tmax (in vivo; [2]): 0.5 h
bioavailability (in vivo; [2]): 80%
half-life (in vivo; [2]): 7 h
Tmax (in vivo; [3]): 1 h
half-life (in vivo; [3]): 7.8 h
Tmax (in vivo; [4]): 4 h
bioavailability (in vivo; [4]): 41%
half-life (in vivo; [4]): 3.3 h
bioavailability following intraperitoneal administration (in vivo; rat, ip): high bioavailability
Cmax (peak plasma concentration), IP (in vivo; rat, ip, 5 mg/kg): 36 2. 6 ng/mL
Cmax (peak plasma concentration), IV (in vivo; rat, iv, 1 mg/kg): 12 8 ng/mL
Cmax (peak plasma concentration), PO (in vivo; rat, po, 5 mg/kg): 15 1. 1 ng/mL

Reference: article PMC12866179, “Oxidized MIF is an Alzheimer’s disease drug target relaying external risk factors to tau pathology” (Cell Reports Medicine, 2025)
